Assay results from patent US8071654B2, “Inhibitors of thromboxane formation and action” (priority 2000, dated 2011).

How the values were obtained:
platelet TP receptor = target: T1, platelet TP receptor (Homo sapiens, UniProt P21731); test: binding of 125I-BOP to platelets
T1 construct: endogenous in cells; host or cells: washed human platelets
T1 sequence (P21731 1-343): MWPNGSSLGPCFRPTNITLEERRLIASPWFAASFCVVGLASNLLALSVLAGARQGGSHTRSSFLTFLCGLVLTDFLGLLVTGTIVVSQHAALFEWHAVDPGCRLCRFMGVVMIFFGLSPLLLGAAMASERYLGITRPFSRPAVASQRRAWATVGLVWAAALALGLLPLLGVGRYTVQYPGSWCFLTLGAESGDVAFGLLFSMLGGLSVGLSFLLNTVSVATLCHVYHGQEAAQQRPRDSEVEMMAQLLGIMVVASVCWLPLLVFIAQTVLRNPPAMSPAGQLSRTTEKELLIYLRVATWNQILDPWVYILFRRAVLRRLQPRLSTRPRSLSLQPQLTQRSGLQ
Protocol: Washed platelets were prepared as described above, except that the platelet suspension was made up at a concentration of 10×10^6 cells/0.5 ml. The binding assay involved the addition of radioligand (30,000 cpm ^125I-BOP) to all tubes in triplicate, and either various doses of unlabeled I-BOP (10^−9-10^−7 M), PBT-3 (10^−9-10^−7 M) or U46619 (10^−9-10^−7 M) in 1 μl ethanol. Additional tubes containing excess unlabeled I-BOP were included to assess the extent of non-specific binding.

Plase A2 = test: AA formed in collagen-treated washed human platelets (Plase A2), HPLC; assay type: cell-based; conditions: for Plase A2 enzyme activity (% of control values, mean ± SD): n = 3
Protocol: 0.5 ml of platelet suspension was added to siliconized glass tubes (four at a time) and heated with magnetic stirring to 37° for 1 min in a platelet aggregometer (PAP-4C). Either vehicle alone (ethanol, 1 μl) or hepoxilin analog was then added, followed two min later by agonist (collagen: 2 μg; PGH2: 100 ng/0.5 ml; U46619: 10 ng/0.5 ml or I-BOP: 2 ng/0.5 ml). The response was recorded for the next 5 min. In experiments where analysis of TxB2 and HHT were to be made by HPLC, the platelet suspension at the end of the experiment was diluted with ethyl acetate, 100 ng of prostaglandin B1 was added as internal standard, and the mixture was acidified to pH 3 with 0.1 N HCl. After centrifugation, the organic layer was separated, washed twice with water to neutrality, and evaporated to dryness. Half of the sample was taken and was resuspended in 1 ml ethyl acetate containing 20 μg ADAM reagent, and was left in the dark for 2 h (38). The solvent was then evaporated and the residue was acetylated with a solution of pyridine/acetic anhydride (3/1, v/v) during 16 h at 23°. The reagents were evaporated to dryness and the residue was resuspended in acetonitrile/water for HPLC analysis. In experiments where the conversion of tritiated PGH2 was to be monitored, the procedure described above was repeated with tritiated PGH2 instead of unlabeled PGH2. After extraction of the sample as described above, the radiolabeled compounds were analyzed by TLC. Dose response curves for varying amounts of test compounds were generated and the data expressed as % inhibition of collagen-induced platelet aggregation. Each point was investigated 5 times and statistical analysis of the data was carried out using Macintosh Statview statistical software.
Measurement of eicosanoids formed by platelets during treatment with collagen or the TP receptor agonists in the presence or absence of PBT-3 was carried out by HPLC after appropriate derivatization with a fluorescent tag (anthracyl diazomethane—ADAM) which forms a fluorescent ester (44). The method was adapted to measure the following compounds: TxB2, HHT, 12-HETE and M. The platelet suspension at the end of the experiment was mixed with ethyl acetate, 100 ng of prostaglandin B1 was added as internal standard and the mixture was acidified to pH 3 with 0.1 N HCl. After centrifugation, the organic layer was separated, washed twice with water to neutrality, and evaporated to dryness. The residue was resuspended in ethyl acetate and half of the sample was taken. It was diluted to 0.2 ml with ethyl acetate containing 20 μg ADAM reagent, and was left in the dark for 2 h. The solvent was then evaporated and the residue was acetylated with a solution of pyridine/acetic anhydride (3/1, v/v) for 16 h at 23°. The reagents were evaporated to dryness and the residue was resuspended in acetonitrile/water for HPLC analysis. Dose response curves for varying amounts of test compounds were generated and the data were expressed as % inhibition of agonist-induced platelet aggregation. Each point was investigated 3 times and statistical analysis of the data was carried out using Macintosh Statview statistical software.
Analysis of the anthryl (ADAM)-acetate derivative of TxB2, HHT and 12 HETE in the extracted platelet samples was carried out on a Hewlett Packard (1100 series) HPLC to which was attached a Shimadzu fluorescent detector (RF-10AXL). The detector was operated with excitation at 364 nm, emission at 411 nm. […]

fold less active than I-BOP in competing with 125I-BOP binding (platelet TP receptor): about 16 fold
IC50 (platelet TP receptor; 10×10^6 cells/0.5 ml, read-out: IC50 for competition with 125I-BOP binding to platelets): 8.1 nM
Compound: CCCCC/C=C\CC1CC1[C@@H](O)/C=C\C/C=C\CCCC(=O)OC (stereo partly drawn) [PBT-3, 10(S)-hydroxy-11,12-cyclopropyl-eicosa-5Z,8Z,14Z-trienoic acid methyl ester]
Plase A2 enzyme activity (% of control values, mean ± SD) (Plase A2; PBT-3 0.05 μM): 100.0 ± 6.9^NS % of control
Plase A2 enzyme activity (% of control values, mean ± SD) (Plase A2; PBT-3 0.30 μM): 91.9 ± 5.6^NS % of control
Plase A2 enzyme activity (% of control values, mean ± SD) (Plase A2; PBT-3 0.60 μM): 89.5 ± 15.6^NS % of control
Plase A2 enzyme activity (% of control values, mean ± SD) (Plase A2; PBT-3 3.00 μM): 120.8 ± 18.3^NS % of control
inhibition of Plase A2, in words (Plase A2; relatively large amounts of PBT-3, about 3-4 log doses greater than required to inhibit the TP receptor): Neither COX-1, COX-2,12-LOX nor Plase A2 was inhibited
